Biological target: T1, XCP1-His (Arabidopsis thaliana, UniProt O65493)
T1 construct: C-terminal 6xHis tag kept; from Arabidopsis cDNA; transiently expressed in Nicotiana benthamiana leaves with P19, Ni-NTA purified
Assay: inhibition of Ac-CNYD-AMC cleavage, […] h preincubation, […] h incubation
Format: biochemical
Conditions: 1 ug enzyme, 25 uM Ac-CNYD-AMC; covalent

T1 sequence (O65493 137-355): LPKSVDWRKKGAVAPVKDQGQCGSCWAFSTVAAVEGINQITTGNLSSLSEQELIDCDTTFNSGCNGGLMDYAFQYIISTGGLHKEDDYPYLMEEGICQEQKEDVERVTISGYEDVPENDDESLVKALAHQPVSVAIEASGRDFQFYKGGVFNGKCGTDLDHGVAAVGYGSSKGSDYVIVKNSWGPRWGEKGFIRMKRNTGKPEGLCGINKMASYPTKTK

CC(C)C[C@H](NC(=O)[C@H]1O[C@@H]1C(=O)O)C(=O)NCCCCNC(=N)N [E-64]
inhibition of Ac-CNYD-AMC cleavage, 1 h preincubation, 10 h incubation: CNYDase activity of purified XCP1-His was enhanced by CaCl2 and inhibited by ZnCl2 and E-64

Reference: PMC10403534, “XCP1 cleaves Pathogenesis-related protein 1 into CAPE9 for systemic immunity in Arabidopsis” (Nature Communications, 2023)
